According to paper PMC7617869, “Molecular glues that inhibit deubiquitylase activity and inflammatory signaling” (Nature Structural & Molecular Biology, 2025):
Several values for one entry are separate records, joined by “and”; a condition that tells them apart may be missing. Equal values may be shown once.

Experiments:
trypsin = experiment: Trypsin IQF diubiquitin selectivity assay; assay type: biochemical; details: Fig. 1g, Trypsin
Protocol: BRISC DUB activity was measured at room temperature using 1 nM BRISC and 500 nM IQF diubiquitin K63 substrate (LifeSensors, DU6303) in the presence of DMSO and compounds at 10 μM (final concentrations). Assays were performed in 384-well black flat-bottom low-flange plates (Corning, 35373) in buffer containing 50 mM HEPES–NaOH pH 7.0, 100 mM NaCl, 1 mg ml^−1 BSA, 1 mM DTT and 0.03% v/v Brij-35. Then, 10 μl of twofold concentrated enzyme stock was dispensed, followed by transfer of 200 nl of compounds (1 mM stock) using a 384-pin tool and a 15-min incubation at room temperature. Then, 10 μl of twofold concentrated substrate stock was added and the reaction was monitored by measuring fluorescence intensity (excitation, 540 nm; emission, 580 nm) after 20-min incubation at room temperature and ~50% of substrate was consumed. Orthogonal assays for verification of H20 and P12 hit compounds using USP2 (100 nM) and trypsin (125 nM) were performed in identical conditions.
(§1) IQF assays were performed in DUB reaction buffer containing 50 mM HEPES–NaOH pH 7.0, 100 mM NaCl, 0.1 mg ml^−1 BSA, 1 mM DTT and 0.03% v/v Brij-35. […] The final concentration of BRISC WT, all BRISC mutants, HsBRISCΔLoop, MmBRISC and DrBRISCΔNΔC was 1 nM. Other enzymes were tested at the following concentrations: 5 nM ARISC (FL), 10 nM CfBRISCΔNΔC, 250 nM AMSH* (ref. [43]), 500 nM USP2 and 1 μM trypsin (Sigma, 9002-07-7). For Michaelis–Menten experiments, 1 nM BRISC with 0–1 μM IQF K63-linked diubiquitin substrate was used. Michaelis–Menten analyses and Lineweaver–Burk plots were calculated using GraphPad Prism (version 9.0).
(§2) To assess enzymatic activity, BRISC complexes were diluted to concentrations between 1 nM and 50 nM. […] Then, 20-μl enzyme reactions were carried out in 384-well black flat-bottom low-flange plates (Corning, 35373). DUB activity was measured using IQF K63-linked diubiquitin (LifeSensors, DU6303) at 50 nM. Cleaved diubiquitin was monitored by measuring fluorescence intensity (excitation, 544 nm; emission, 575 nm; dichroic mirror, 560 nm). Fluorescence intensity was measured every minute for 30 min at 30 °C. Fluorescence intensity units were plotted against time to generate a linear reaction progress curve, where the initial velocity (V0) corresponds to the gradient of the curve (typically achieved within 15 min). IC50 values were calculated using the GraphPad Prism (version 9.0) built-in dose–response equation for inhibitor concentration versus response (variable slope).

CfBRISCΔNΔC = CfBRISCΔNΔC IQF DUB activity assay; assay type: biochemical, ant (Camponotus floridanus); details: for Normalised V0: CfBRISCΔNΔC
Protocol: as §1, §2

BRISC BRCC36 W130A = BRISC BRCC36 W130A (Homo sapiens, UniProt P46736+Q15018+Q9NXR7, W130A); experiment: BRISC mutant IQF assay: BRCC36 W130A; assay type: biochemical
Protocol: as §1, §2

BRISC BRCC36 R167A+L169A = BRISC BRCC36 R167A+L169A (Homo sapiens, UniProt P46736+Q15018+Q9NXR7, L169A/R167A); experiment: BRISC mutant IQF assay: BRCC36 R167A+L169A; assay type: biochemical; details: read-out: Normalised V0
Text: Supplement 41594_2025_1517_MOESM5_ESM.xlsx, sheet "Fig. 4c" | column: Normalised V0

[1] = test system: ISG expression in MCF10A Cas9 cells expressing BRCC45 R137A; experiment: MCF10A BRCC45 R137A ISG expression (RT–qPCR); assay type: cell-based, human; details: hIFNα2 75 ng/ml, 2.5 μM, 4 h

In the case of `O=C(NC1C2CNCC21)c1nn(C(=O)c2c(Cl)cccc2Cl)cc1NC(=O)c1c(Cl)cccc1Cl` (stereo not drawn) [FX-171-C], the “Normalised V0” value (trypsin; FX-171-C 0.02 μM) is reported as 0.9754 and 1.082 and 1.037, the “Normalised V0” value (trypsin; FX-171-C 0.0399999 μM) is reported as 0.8958 and 1.072 and 0.9551 and the “Normalised V0” value (trypsin; FX-171-C 0.0599997 μM) is reported as 0.994 and 1.174 and 1.005. The “Normalised V0” value (trypsin; FX-171-C 0.0799994 μM) was 0.9908 and 1.085 and 0.9856, the “Normalised V0” value (trypsin; FX-171-C 0.119998 μM) was 0.909 and 1.102 and 1.137 and the “Normalised V0” value (trypsin; FX-171-C 0.199996 μM) was 1.048 and 1.0751 and 0.9569. For the same compound, the “Normalised V0” value (trypsin; FX-171-C 0.499975 μM) was 0.9677 and 1.122 and 0.9918, the “Normalised V0” value (trypsin; FX-171-C 0.799936 μM) was 0.9633 and 1.093 and 0.8806 and the “Normalised V0” value (trypsin; FX-171-C 1.25984 μM) was 1.083 and 0.9949 and 1.069. The “Normalised V0” value (trypsin; FX-171-C 1.9996 μM) was 1.032 and 1.136 and 0.9684, the “Normalised V0” value (trypsin; FX-171-C 3.159 μM) was 0.959 and 1.075 and 1.119 and the “Normalised V0” value (trypsin; FX-171-C 5.19739 μM) was 1.013 and 1.118 and 1.082. The “Normalised V0” value (trypsin; FX-171-C 7.99364 μM) was 1.036 and 1.142 and 1.053, the “Normalised V0” value (trypsin; FX-171-C 12.7839 μM) was 1.107 and 1.095 and 0.9652 and the “Normalised V0” value (trypsin; FX-171-C 19.96 μM) was 0.9382 and 0.9859 and 0.9654. For the same compound, the “Normalised V0” value (trypsin; FX-171-C 31.4999 μM) was 0.9264 and 1.08 and 0.8456, the “Normalised V0” value (trypsin; FX-171-C 50.147 μM) was 0.8123 and 0.9453 and 0.8818 and the “Normalised V0” value (trypsin; FX-171-C 79.7601 μM) was 0.7444 and 0.9554 and 0.7546. For the same compound, the “Normalised V0” value (trypsin; FX-171-C 125.99 μM) was 0.6817 and 0.8207 and 0.6739, the “Normalised V0” value (trypsin; FX-171-C 199.922 μM) was 0.4322 and 0.4467 and 0.4966 and the “inhibition of ant BRISC” value (CfBRISCΔNΔC) was “no inhibition”. The “Normalised V0” value (CfBRISCΔNΔC; FX-171-C 0.013 μM) was 0.8962 and 0.9603 and 0.9451 and 1.01 and 0.9065 and 0.9614, the “Normalised V0” value (CfBRISCΔNΔC; FX-171-C 0.02 μM) was 0.8823 and 0.9398 and 0.9125 and the “Normalised V0” value (CfBRISCΔNΔC; FX-171-C 0.0399999 μM) was 0.8374 and 1.085 and 0.922. For the same compound, the “Normalised V0” value (CfBRISCΔNΔC; FX-171-C 0.0599997 μM) was 0.96 and 0.9545 and 0.8432, the “Normalised V0” value (CfBRISCΔNΔC; FX-171-C 0.0799994 μM) was 0.96 and 1.021 and 0.8317 and the “Normalised V0” value (CfBRISCΔNΔC; FX-171-C 0.119998 μM) was 0.912 and 0.9545 and 0.6902. The “Normalised V0” value (CfBRISCΔNΔC; FX-171-C 0.199996 μM) was 0.9393 and 1.029 and 0.809, the “Normalised V0” value (CfBRISCΔNΔC; FX-171-C 0.499975 μM) was 0.8932 and 0.9706 and 1.16 and the “Normalised V0” value (CfBRISCΔNΔC; FX-171-C 0.799937 μM) was 0.8483 and 0.9187 and 0.8448. The “Normalised V0” value (CfBRISCΔNΔC; FX-171-C 1.25984 μM) was 0.9211 and 1.122 and 1.015, the “Normalised V0” value (CfBRISCΔNΔC; FX-171-C 1.9996 μM) was 0.9132 and 0.9123 and 0.84 and the “Normalised V0” value (CfBRISCΔNΔC; FX-171-C 3.159 μM) was 0.9417 and 1.133 and 0.9365. The “Normalised V0” value (CfBRISCΔNΔC; FX-171-C 5.19739 μM) was 0.9697 and 1.085 and 0.6282, the “Normalised V0” value (CfBRISCΔNΔC; FX-171-C 7.99364 μM) was 0.932 and 1.064 and 1.2693 and the “Normalised V0” value (CfBRISCΔNΔC; FX-171-C 12.7839 μM) was 1.03 and 1.045 and 0.7909. The “Normalised V0” value (CfBRISCΔNΔC; FX-171-C 19.96 μM) was 1.048 and 1.129 and 1.039, the “Normalised V0” value (CfBRISCΔNΔC; FX-171-C 31.4999 μM) was 0.9199 and 1.137 and 0.9151 and the “Normalised V0” value (CfBRISCΔNΔC; FX-171-C 50.147 μM) was 0.8823 and 1.1 and 0.9082. The “Normalised V0” value (CfBRISCΔNΔC; FX-171-C 79.7601 μM) was 0.9478 and 0.9802 and 1.294, the “Normalised V0” value (CfBRISCΔNΔC; FX-171-C 125.99 μM) was 0.8064 and 1.008 and 0.9331 and the “Normalised V0” value (CfBRISCΔNΔC; FX-171-C 199.922 μM) was 1.048 and 0.9667 and 0.9357. The IC50 (BRISC BRCC36 W130A) was 23 µM, the remaining activity at 0.0035 µM (BRISC BRCC36 W130A; FX-171-C 0.0035 μM, read-out: Normalised V0) was 95.2% and the remaining activity at 0.035 µM (BRISC BRCC36 W130A; FX-171-C 0.035 μM, read-out: Normalised V0) was 96.5%. It also gave a remaining activity at 12.5 µM (BRISC BRCC36 W130A; FX-171-C 12.5 μM, read-out: Normalised V0) of 67.5%, a remaining activity at 50 µM (BRISC BRCC36 W130A; FX-171-C 50 μM, read-out: Normalised V0) of 40.4% and a remaining activity at 100 µM (BRISC BRCC36 W130A; FX-171-C 100 μM, read-out: Normalised V0) of 21%. For the same compound, the remaining activity at 0.35 µM (BRISC BRCC36 R167A+L169A; FX-171-C 0.35 μM) was 98.6%, the remaining activity at 25 µM (BRISC BRCC36 R167A+L169A; FX-171-C 25 μM) was 85.6% and the “ISG expression (ISG15, IFIT1, IFIT2, IFITM1, CXCL10)” value [1] was “a reduction in ISG expression was not observed”.
